Measurements published in US20250270217A1, “IMIDAZ0[1,2-A]PYRIMIDINE-5(1 H)-ONES HAVING A COVALENT WARHEAD AT THE 3-POSITION AS WRN INHIBITORS” (Incyte Corporation, priority 2023, published 2025).
Counter-ions that a name gives are not always drawn.

Key:
WRN [1] = molecular target: T1, WRN (Homo sapiens, UniProt Q14191); test: WRN Helicase activity assay (fluorescence DNA unwinding); type: biochemical; details: 1-hr pre-incubation with enzyme; 100 μM ATP, 25 nM forked dsDNA, 1 nM WRN; geometric mean of at least 2 replicates
T1 construct: A His-tagged construct of WRN (AA S2-S1235) was produced and used for the ATPase assay; His; made in house; host or cells: Sf9 insect cells (baculovirus)
Experimental: Compounds of the examples were tested for WRN helicase activity. DNA encoding the target protein, 6×HIS-TEV-WRN-517-945, was produced, cloned and transfected as detailed in Example D. To determine the inhibitory properties of the compounds, a 384 wells plate-based Helicase assay was set up to measure the extent of DNA unwinding (Helicase) activity of WRN. The WRN Helicase assay was designed to measure increase in fluorescence signal using a fluorescence based, donor-quencher paired forked dsDNA oligomer substrate (custom synthesis from Sigma-Aldrich) prepared by annealing equal amounts of oligo GPat-1 ([BHQ2][…]) and oligo GPat-2 ([…][TAM]). Continuous measurement of fluorescent signal was used to optimize the buffer conditions, concentration of enzyme (WRN), concentration of substrates (ATP & dsDNA), and the linearity of the Helicase reaction. All solutions were prepared in the following assay buffer: 50 mM Tris-HCl, pH-7.5, 2 mM MgCl2, 50 mM NaCl, 1 mM EGTA, 0.01% P-20, 0.05% BSA, and 2 mM DTT prepared with nuclease free water.
A serial dilution (1:3 scheme) of the compounds was prepared in neat DMSO and 100 nL of the compounds was dispensed in the Greiner black low volume (Greiner #784076) 384 wells assay plate. An 1-hr pre-incubation of the compounds with enzyme was included. A His-tagged construct of WRN (AA S2-S1235) was produced and used for the ATPase assay. Maximum inhibition control wells were set up with the addition of only assay buffer, and no inhibition control wells were set up with neat DMSO without test compounds. The reaction was initiated by addition of 5 μL substrate mix (200 μM ultrapure ATP, and 50 nM dsDNA prepared in assay buffer) and incubated at 25° C. for 35 min. A typical Helicase reaction consists of 25 nM forked dsDNA, 100 μM ATP, and 1 nM WRN prepared in assay buffer. The WRN Helicase reaction was quenched by the addition of 5 μL ‘STOP’ solution containing 100 mM EDTA (final EDTA concentration 33.33 mM) prepared in assay buffer. The plates were read on BMG PHERAstar FSX using 540/590 module to measure an increase of fluorescence. Data analysis was carried out using the Genedata software following % of control normalization. Fitting parameters include dose response IC50, Hill slope (n), maximum inhibition (S∞), and minimum inhibition (S0). The reported IC50 values for compounds in this invention are the geometric means of at least 2 independent replicates.

WRN [2] = molecular target: T1, WRN; test: WRN ATPase activity assay (ADP-Glo); type: biochemical; details: 1-hr pre-incubation with enzyme; 100 μM ATP, 25 nM forked dsDNA, 1 nM WRN; geometric mean of at least 2 replicates
Experimental: Compounds of the Examples were tested for WRN ATPase activity. WRN ATPase activity catalyzes ATP hydrolysis to produce ADP and phosphate. DNA encoding the target protein, 6×HIS-TEV-WRN-517-945, was produced, cloned and transfected as detailed in Example D. The amount of ADP produced was measured using ADP-Glo™ Kinase Assay kit from Promega Corporation in a Greiner white regular volume 384 wells assay plate (Greiner #781075). Data was normalized to a standard curve generated using various ADP concentrations and the corresponding luminescent signal intensities at each concentration. The assay conditions were optimized for enzyme concentration (WRN), substrate concentrations (ATP & dsDNA), and the linearity of the ATPase reaction, in the following assay buffer: 50 mM Tris-HCl, pH-7.5, 2 mM MgCl2, 50 mM NaCl, 1 mM EGTA, 0.01% P-20, 0.05% BSA, and 2 mM DTT prepared with nuclease free water.
A serial dilution (1:3 scheme) of the compounds were prepared in neat DMSO, with 100 nL of the compounds dispensed in the 384 wells assay plate. An 1-hr pre-incubation of the compounds with enzyme was included. A His-tagged construct of WRN (AA S2-S1235) was produced and used for the ATPase assay. Maximum inhibition control wells were set up with the addition of only assay buffer, and no inhibition control wells were set up with neat DMSO without test compounds. The reaction was initiated by addition of 5 μL substrate mix (200 μM ultrapure ATP, and 50 nM dsDNA prepared in assay buffer) and incubated at 25° C. for 35 min. A forked dsDNA oligomer substrate was prepared by annealing equal amounts of oligo GPat-1 ([BHQ2][…]) and oligo GPat-2 ([…][TAM]) and was used as dsDNA substrate for WRN ATPase assay. A typical ATPase reaction consists of 25 nM forked dsDNA, 100 μM ATP, and 1 nM WRN prepared in assay buffer. The WRN ATPase reaction was stopped by the addition of 5 μL of ADP-Glo Reagent from ADP-Glo™ Kinase Assay kit and incubated for 40 min to deplete the unreacted ATP. Afterwards, 5 μL of Kinase Detection Reagent from the ADP-Glo™ Kinase Assay kit was added and incubated for 1 hr for the development of luminescence signal.
Luminesce signals were measured on BMG PHERAstar FSX using luminescence protocol. Data analysis was carried out using Genedata software following % of control normalization. Fitting parameters include dose response IC50, Hill slope (n), maximum inhibition (S∞), and minimum inhibition (S0). The reported IC50 values for compounds in this invention are the geometric means of at least 2 independent replicates.

T1 sequence (Q14191 2-1235): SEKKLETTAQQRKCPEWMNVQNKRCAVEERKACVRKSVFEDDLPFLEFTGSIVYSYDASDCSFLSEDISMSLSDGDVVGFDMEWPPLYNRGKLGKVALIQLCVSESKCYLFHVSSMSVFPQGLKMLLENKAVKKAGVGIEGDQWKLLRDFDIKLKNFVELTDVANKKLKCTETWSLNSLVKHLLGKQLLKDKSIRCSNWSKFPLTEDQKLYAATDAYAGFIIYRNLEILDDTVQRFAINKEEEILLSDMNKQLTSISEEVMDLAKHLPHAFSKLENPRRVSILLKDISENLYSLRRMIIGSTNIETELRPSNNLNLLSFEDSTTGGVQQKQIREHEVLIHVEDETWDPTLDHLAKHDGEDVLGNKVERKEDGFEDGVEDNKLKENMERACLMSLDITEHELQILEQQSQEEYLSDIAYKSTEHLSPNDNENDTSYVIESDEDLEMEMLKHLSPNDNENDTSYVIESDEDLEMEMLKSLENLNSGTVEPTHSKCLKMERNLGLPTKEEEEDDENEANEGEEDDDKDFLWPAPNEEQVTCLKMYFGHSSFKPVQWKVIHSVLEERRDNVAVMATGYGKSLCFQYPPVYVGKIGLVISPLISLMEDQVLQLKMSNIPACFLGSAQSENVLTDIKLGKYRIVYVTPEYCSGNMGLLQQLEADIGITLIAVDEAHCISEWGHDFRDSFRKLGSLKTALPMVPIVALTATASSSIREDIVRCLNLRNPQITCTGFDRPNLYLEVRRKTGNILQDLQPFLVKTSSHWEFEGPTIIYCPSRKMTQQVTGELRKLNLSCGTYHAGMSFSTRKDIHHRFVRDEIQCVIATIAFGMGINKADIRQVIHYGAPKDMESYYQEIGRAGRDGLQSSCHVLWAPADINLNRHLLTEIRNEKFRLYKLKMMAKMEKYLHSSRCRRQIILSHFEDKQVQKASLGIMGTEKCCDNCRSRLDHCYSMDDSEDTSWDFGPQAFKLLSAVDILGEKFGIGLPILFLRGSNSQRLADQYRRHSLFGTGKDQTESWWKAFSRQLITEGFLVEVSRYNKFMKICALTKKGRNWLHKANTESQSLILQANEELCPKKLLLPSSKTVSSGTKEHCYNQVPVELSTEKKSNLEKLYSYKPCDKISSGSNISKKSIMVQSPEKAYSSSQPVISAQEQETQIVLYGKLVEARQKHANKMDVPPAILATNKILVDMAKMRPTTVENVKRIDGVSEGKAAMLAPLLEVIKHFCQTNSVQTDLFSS

IC50 (WRN [1])	IC50 (WRN [2])	Structure (SMILES)
< 100 nM	< 100 nM	C=CC(=O)Nc1cc(C(=O)NC2CC2)ccc1-c1c(CC)nc2n(CC(=O)Nc3ccc(C(F)(F)F)cc3Cl)c(C)c(C)n2c1=O [Example 26, 3-Acrylamido-4-(1-(2-((2-chloro-4-(trifluoromethyl)phenyl)amino)-2-oxoethyl)-7-ethyl-2,3-dimethyl-5-oxo-1,5-dihydroimidazo[1,2-a]pyrimidin-6-yl)-N-cyclopropylbenzamide]
< 100 nM	< 100 nM	C=CC(=O)Nc1cc(C(=O)NC2CCOCC2)ccc1-c1c(CC)nc2n(CC(=O)Nc3ccc(C(F)(F)F)cc3)c(C)c(C)n2c1=O [Example 32, 3-Acrylamido-4-(7-ethyl-2,3-dimethyl-5-oxo-1-(2-oxo-2-((4-(trifluoromethyl)phenyl)amino)ethyl)-1,5-dihydroimidazo[1,2-a]pyrimidin-6-yl)-N-(tetrahydro-2H-pyran-4-yl)benzamide]
< 100 nM	< 100 nM	C=CC(=O)Nc1c(Cl)cccc1-c1c(CC)nc2n(CC(=O)Nc3ccc(F)cc3)c(C)c(C)n2c1=O [Example 42, N-(2-chloro-6-(7-ethyl-1-(2-((4-fluorophenyl)amino)-2-oxoethyl)-2,3-dimethyl-5-oxo-1,5-dihydroimidazo[1,2-a]pyrimidin-6-yl)phenyl)acrylamide]
< 100 nM	< 100 nM	C=CC(=O)Nc1ccccc1-c1c(C)n(CC(=O)Nc2ccc(C(F)(F)F)cc2)c2nc(CC)c(-c3ccc(C(=O)NC)nc3)c(=O)n12 [Example 41, 5-(3-(2-Acrylamidophenyl)-7-ethyl-2-methyl-5-oxo-1-(2-oxo-2-((4-(trifluoromethyl)phenyl)amino)ethyl)-1,5-dihydroimidazo[1,2-a]pyrimidin-6-yl)-N-methylpicolinamide, trifluoroacetate salt]
< 100 nM	< 100 nM	C=CC(=O)Nc1ccccc1-c1c(CC)nc2n(CC(=O)Nc3ccc(F)cc3Cl)c(C)c(C)n2c1=O [Example 20, N-(2-(1-(2-((2-Chloro-4-fluorophenyl)amino)-2-oxoethyl)-7-ethyl-2,3-dimethyl-5-oxo-1,5-dihydroimidazo[1,2-a]pyrimidin-6-yl)phenyl)acrylamide]
< 100 nM	< 100 nM	C=CC(=O)Nc1ccccc1-c1c(CC)nc2n(CC(=O)Nc3ccc(C(F)(F)F)cc3Cl)c(C)cn2c1=O [Example 2, N-(2-(1-(2-((2-Chloro-4-(trifluoromethyl)phenyl)amino)-2-oxoethyl)-7-ethyl-2-methyl-5-oxo-1,5-dihydroimidazo[1,2-a]pyrimidin-6-yl)phenyl)acrylamide]
< 100 nM	< 100 nM	C=CC(=O)Nc1cc(C(=O)NC2(C)CC2)ccc1-c1c(CC)nc2n(CC(=O)Nc3ccc(C(F)(F)F)cc3)c(C)cn2c1=O [Example 10, 3-Acrylamido-4-(7-ethyl-2-methyl-5-oxo-1-(2-oxo-2-((4-(trifluoromethyl)phenyl)amino)ethyl)-1,5-dihydroimidazo[1,2-a]pyrimidin-6-yl)-N-(1-methylcyclopropyl)benzamide]
< 100 nM	< 100 nM	C=CC(=O)Nc1cc(C(=O)NC(C)C)ccc1-c1c(CC)nc2n(CC(=O)Nc3ccc(C(F)(F)F)cc3)c(C)c(C)n2c1=O [Example 28, 3-Acrylamido-4-(7-ethyl-2,3-dimethyl-5-oxo-1-(2-oxo-2-((4-(trifluoromethyl)phenyl)amino)ethyl)-1,5-dihydroimidazo[1,2-a]pyrimidin-6-yl)-N-isopropylbenzamide]

Continued, compound first:

Structure (SMILES)	IC50 (WRN [1])	IC50 (WRN [2])
C=CC(=O)Nc1c(Cl)cccc1-c1c(CC)nc2n(CC(=O)Nc3ccc(Cl)cc3Cl)c(C)cn2c1=O [Example 44, N-(2-chloro-6-(1-(2-((2,4-dichlorophenyl)amino)-2-oxoethyl)-7-ethyl-2-methyl-5-oxo-1,5-dihydroimidazo[1,2-a]pyrimidin-6-yl)phenyl)acrylamide]	< 100 nM	< 100 nM
C=CC(=O)Nc1ccccc1-c1c(CC)nc2n(CC(=O)Nc3ccc(F)cc3)ccn2c1=O [Example 17, N-(2-(7-ethyl-1-(2-((4-fluorophenyl)amino)-2-oxoethyl)-5-oxo-1,5-dihydroimidazo[1,2-a]pyrimidin-6-yl)phenyl)acrylamide]	100 to 500 nM	100 to 500 nM
C=CS(=O)(=O)Nc1ccccc1-c1c(CC)nc2n(CC(=O)Nc3ccc(C(F)(F)F)cc3)c(C)cn2c1=O [Example 6, 2-(7-Ethyl-2-methyl-5-oxo-6-(2-(vinylsulfonamido)phenyl)imidazo[1,2-a]pyrimidin-1(5H)-yl)-N-(4-(trifluoromethyl)phenyl)acetamide]	< 100 nM	< 100 nM
C=CC(=O)Nc1ccccc1-c1c(CC)nc2n(CC(=O)Nc3ccc(C(F)(F)F)cc3)c(-c3ccccc3)cn2c1=O [Example 22, N-(2-(7-Ethyl-5-oxo-1-(2-oxo-2-((4-(trifluoromethyl)phenyl)amino)ethyl)-2-phenyl-1,5-dihydroimidazo[1,2-a]pyrimidin-6-yl)phenyl)acrylamide]	500 to 1000 nM	1000 to 5000 nM
C=CC(=O)Nc1ccccc1-c1c(CC)nc2n(CC(=O)Nc3ccc(C(F)(F)F)cc3)c(C)cn2c1=O [Example 1, N-(2-(7-Ethyl-2-methyl-5-oxo-1-(2-oxo-2-((4-(trifluoromethyl)phenyl)amino)ethyl)-1,5-dihydroimidazo[1,2-a]pyrimidin-6-yl)phenyl)acrylamide]	< 100 nM	< 100 nM
C=CC(=O)Nc1ccccc1-c1c(CC)nc2n(CC(=O)Nc3ccc(C(F)(F)F)cc3)c(C)c(-c3ccccc3)n2c1=O [Example 15, N-(2-(7-Ethyl-2-methyl-5-oxo-1-(2-oxo-2-((4-(trifluoromethyl)phenyl)amino)ethyl)-3-phenyl-1,5-dihydroimidazo[1,2-a]pyrimidin-6-yl)phenyl)acrylamide]	< 100 nM	< 100 nM
C=CC(=O)Nc1ccccc1-c1c(CC)nc2n(CC(=O)Nc3ccc(C(F)(F)F)cc3)c(C)c(-c3cnn(C)c3)n2c1=O [Example 16, N-(2-(7-Ethyl-2-methyl-3-(1-methyl-1H-pyrazol-4-yl)-5-oxo-1-(2-oxo-2-((4-(trifluoromethyl)phenyl)amino)ethyl)-1,5-dihydroimidazo[1,2-a]pyrimidin-6-yl)phenyl)acrylamide]	< 100 nM	< 100 nM
C=CC(=O)Nc1ccccc1-c1c(C)n(CC(=O)Nc2ccc(F)cc2)c2nc(CC)c(-c3ccccc3)c(=O)n12 [Example 37, N-(2-(7-Ethyl-1-(2-((4-fluorophenyl)amino)-2-oxoethyl)-2-methyl-5-oxo-6-phenyl-1,5-dihydroimidazo[1,2-a]pyrimidin-3-yl)phenyl)acrylamide]	< 100 nM	< 100 nM
